Drawing on patent US12522593B2, “Azacycloalkyl carbonyl cyclic amine compound” (Alivexis, Inc., priority 2022, dated 2026), this text covers IC50 for 31 compounds.

Molecules are shown by their SMILES. Some results are limits rather than exact numbers.

The target of one assay is CTSC in U937 cells (Homo sapiens (Human), UniProt P53634). Briefly: Intracellular CTSC inhibition assay (in vitro), LLOMe-induced cell death in U937 cells. The assay is classed as cell-based. The following applies: 3 hours culture, CellTiter-Glo. In short, it runs like this:
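U937 cells in RPMI-1640 with 10% FBS were preincubated 30 min with compound ([…], 3-fold dilutions). A 300 μmol/L LLOMe solution was then added, which drives CTSC-dependent cell death, and cells were cultured 3 h. Viability read by CellTiter-Glo luminescence; IC50 from 4-parameter fit.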

In the next assay the target is human recombinant CTSC (Homo sapiens (Human), UniProt P53634). As to the kind of experiment: CTSC inhibition assay (in vitro), fluorescent substrate GF-AFC. It counts as biochemical. The following applies: 30 μmol/L GF-AFC, pH 5.0, 25° C. In short, it runs like this:
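Recombinant human CTSC pre-activated with cathepsin L (18° C, 30 min), then preincubated with compound 30 min at 25° C in pH 5.0 MES buffer with 5 mmol/L DTT (0.66 ng/mL CTSC, 0.15% DMSO). Cleavage of 30 μmol/L GF-AFC read after 1 h at 25° C (ex 390/em 505 nm); IC50 by 4-parameter fit.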

Chain of CTSC in U937 cells (P53634 25-463): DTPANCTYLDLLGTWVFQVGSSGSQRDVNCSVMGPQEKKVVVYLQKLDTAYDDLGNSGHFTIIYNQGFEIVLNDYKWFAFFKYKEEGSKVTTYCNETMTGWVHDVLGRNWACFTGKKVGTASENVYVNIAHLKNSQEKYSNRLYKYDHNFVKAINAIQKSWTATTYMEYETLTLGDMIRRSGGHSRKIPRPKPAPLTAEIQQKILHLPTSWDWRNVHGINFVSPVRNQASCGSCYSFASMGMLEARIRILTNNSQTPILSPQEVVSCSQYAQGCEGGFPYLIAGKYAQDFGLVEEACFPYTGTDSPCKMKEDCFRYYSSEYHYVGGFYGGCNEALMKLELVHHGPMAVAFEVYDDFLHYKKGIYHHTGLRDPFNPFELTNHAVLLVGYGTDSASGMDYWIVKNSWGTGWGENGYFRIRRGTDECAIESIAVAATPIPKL
Chain of human recombinant CTSC (P53634 25-134): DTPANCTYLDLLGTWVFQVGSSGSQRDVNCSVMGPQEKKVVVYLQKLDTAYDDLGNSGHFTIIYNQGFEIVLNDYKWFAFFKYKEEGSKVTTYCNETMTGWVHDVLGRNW
Chain of human recombinant CTSC (P53634 231-394): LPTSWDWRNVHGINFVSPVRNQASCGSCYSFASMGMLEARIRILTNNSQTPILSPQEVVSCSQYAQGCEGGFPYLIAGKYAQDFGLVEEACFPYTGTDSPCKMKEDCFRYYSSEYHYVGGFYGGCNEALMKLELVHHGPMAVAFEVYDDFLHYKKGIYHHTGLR
Chain of human recombinant CTSC (P53634 395-463): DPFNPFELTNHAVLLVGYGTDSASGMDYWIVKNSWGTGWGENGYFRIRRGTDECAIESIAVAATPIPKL

One may read the IC50 as the concentration that gives 50% inhibition. As to `O=C([C@@H]1C[C@@H](O)C2(CCC2)CN1)N1CCC(c2noc(C3CCC(F)(F)CC3)n2)(C2CC2)CC1` [Example 74], the concentration for half-maximal inhibition (IC50) on CTSC in U937 cells is 0.38 nM; at human recombinant CTSC it was 0.87 nM.
As to `CN(C)C1(c2nc(C3CC(F)(F)C3)no2)CCN(C(=O)[C@@H]2C[C@@H](O)C3(CCC3)CN2)CC1` [Example 75], the IC50 against CTSC in U937 cells was 5.01 nM; on human recombinant CTSC it was 2.21 nM.
Taken in the same sequence, the figures for `CC1(O)CC[C@@H](C(=O)N2CCC(c3noc(C4CC(F)(F)C4)n3)(C(F)(F)F)CC2)NC1` (some centres unmarked) [Example 76] were above 111 nM and 187 nM.
On to `CC(=O)N(C)C1(c2nc(C3CC(F)(F)C3)no2)CCN(C(=O)[C@@H]2C[C@@H](O)C3(CCC3)CN2)CC1` [Example 77], for which the half-maximal inhibitory concentration (IC50) was above 333 nM against CTSC in U937 cells and 3.79 nM at human recombinant CTSC.
On to `CN(C1(c2nc(C3CC(F)(F)C3)no2)CCN(C(=O)[C@@H]2C[C@@H](O)C3(CCC3)CN2)CC1)S(C)(=O)=O` [Example 78], for which the values for the IC50 on CTSC in U937 cells and on human recombinant CTSC were 129 nM and 5.68 nM, respectively.
Regarding `O=C([C@@H]1C[C@@H](O)C2(CCC2)CN1)N1CCC(c2ccsc2)(c2noc(C3CC(F)(F)C3)n2)CC1` [Example 79], the 50% inhibitory concentration (IC50) was 0.75 nM on CTSC in U937 cells and 2.17 nM on human recombinant CTSC.
The like results for `CC1(C)CN[C@H](C(=O)N2CCC(c3noc(C4CCC(F)(F)CC4)n3)(C3CC3)CC2)C[C@H]1O` [Example 80, (4-Cyclopropyl-4-(5-(4,4-Difluorocyclohexyl)-1,2,4-oxadiazol-3-yl)piperidin-1-yl)((2S,4R)-4-hydroxy-5,5-dimethylpiperidin-2-yl)methanone] were, in that order, 0.65 nM and 1.86 nM.
The like results for `O=C([C@@H]1C[C@@H](O)C2(CCC2)CN1)N1CCC(c2cn(C3CCC(F)(F)CC3)nn2)(C(F)(F)F)CC1` [Example 81] were, in that order, 13.7 nM and 1.31 nM.
With `CC(C)C1(c2noc(C3CCC(F)(F)CC3)n2)CCN(C(=O)[C@@H]2C[C@@H](O)C3(CCC3)CN2)CC1` [Example 82], the IC50 is 0.25 nM at CTSC in U937 cells and 0.93 nM at human recombinant CTSC.
Taken in the same sequence, the figures for `Cc1ccc(C2(c3nc(C4CC(F)(F)C4)no3)CCN(C(=O)[C@@H]3C[C@@H](O)C4(CCC4)CN3)CC2)cc1` [Example 83] were 0.23 nM and 1.47 nM.
Taken in the same sequence, the figures for `Cc1ccc(C2(C(=O)NCC3CCC(F)(F)CC3)CCN(C(=O)[C@@H]3CC[C@@]4(CCO4)CN3)CC2)cc1` [Example 84] were 1.92 nM and 1.25 nM.
Turning to `O=C([C@@H]1CC[C@@]2(CCO2)CN1)N1CCC(C(=O)NCC2CCC(F)(F)CC2)(C(F)(F)F)CC1` [Example 85], the concentration for half-maximal inhibition (IC50) is 4.12 nM against CTSC in U937 cells and 2.51 nM at human recombinant CTSC.
Taken in the same sequence, the figures for `CC(C)C1(c2noc(C3CCC(F)(F)CC3)n2)CCN(C(=O)[C@@H]2CC[C@@]3(CCO3)CN2)CC1` [Example 86] were 1.06 nM and 1.43 nM.
As to `O=C([C@@H]1CC[C@@]2(CCO2)CN1)N1CCC(c2ccc(F)cc2)(c2nnc(C3CCC(F)(F)CC3)o2)CC1` [Example 87], the half-inhibitory concentration (IC50) against CTSC in U937 cells was found to be 4.02 nM; on human recombinant CTSC, 3.54 nM.
Consider `O=C([C@@H]1C[C@@H](O)C2(CCC2)CN1)N1CCC(c2nnn(-c3ccc(F)cc3)n2)CC1` [Example 89, (4-(2-(4-Fluorophenyl)-2H-tetrazol-5-yl)piperidin-1-yl)((7S,9R)-9-hydroxy-6-azaspiro[3.5]nonan-7-yl)methanone], for which the IC50 was found to be 0.6 nM against CTSC in U937 cells and 1.45 nM on human recombinant CTSC.
Taken in the same sequence, the figures for `CC1(C)CN[C@H](C(=O)N2CCC(c3nnn(-c4ccc(F)cc4)n3)CC2)C[C@H]1O` [Example 90, (4-(2-(4-Fluorophenyl)-2H-tetrazol-5-yl)piperidin-1-yl)((2S,4R)-4-hydroxy-5,5-dimethylpiperidin-2-yl)methanone] were 0.54 nM and 4.34 nM.
The like results for `O=C([C@@H]1C[C@@H](O)C2(CCC2)CN1)N1CCC(c2ccnc(N3CCC(F)(F)CC3)c2)CC1` [Example 91] were, in that order, 0.54 nM and 0.84 nM.
Taken in the same sequence, the figures for `O=C([C@@H]1C[C@@H](O)C2(CCC2)CN1)N1CCC(c2cnc(N3CCC(F)(F)CC3)s2)CC1` [Example 92] were 3.62 nM and 2.76 nM.
With `O=C([C@@H]1C[C@@H](O)C2(CCC2)CN1)N1CCC(c2cnn(-c3ccc(F)cc3)c2)CC1` [Example 93], the half-maximal inhibitory concentration (IC50) on CTSC in U937 cells came out at 0.77 nM; on human recombinant CTSC, 3.92 nM.
Taken in the same sequence, the figures for `O=C([C@@H]1C[C@@H](O)C2(CCC2)CN1)N1CCC(c2nccc(N3CCC(F)(F)CC3)n2)CC1` [Example 94] were 3.86 nM and 0.37 nM.
Taken in the same sequence, the figures for `O=C([C@@H]1C[C@@H](O)C2(CCC2)CN1)N1CCC(c2nnn(-c3ccc(F)cc3)n2)(C(F)(F)F)CC1` [Example 95] were 0.2 nM and 3.02 nM.
Take `O=C([C@@H]1C[C@@H](O)C2(CCC2)CN1)N1CCC(c2nnn(-c3ccc(F)c(F)c3)n2)CC1` [Example 96]: the results for the concentration for half-maximal inhibition (IC50) at CTSC in U937 cells and at human recombinant CTSC were 0.37 nM and 1.89 nM, respectively.
Regarding `O=C([C@@H]1C[C@@H](O)C2(CCC2)CN1)N1CCC(c2nnn(C3CCC(F)(F)CC3)n2)CC1` [Example 97], the IC50 on CTSC in U937 cells worked out at 3.26 nM; at human recombinant CTSC it was 1.79 nM.
The like results for `O=C([C@@H]1C[C@@H](O)C2(CCC2)CN1)N1CCC(c2cn(-c3ccc(F)cc3)nn2)CC1` [Example 98] were, in that order, 3.8 nM and 4.15 nM.
On to `O=C([C@@H]1C[C@@H](O)C2(CCC2)CN1)N1CCC(c2nccc(-n3cc(F)cn3)n2)CC1` [Example 99], for which the IC50 was 1.12 nM against CTSC in U937 cells and 4.15 nM at human recombinant CTSC.
The like results for `COc1cccc(-n2nnc(C3CCN(C(=O)[C@@H]4C[C@@H](O)C5(CCC5)CN4)CC3)n2)c1` [Example 100] were, in that order, 3.48 nM and 5.4 nM.
Taken in the same sequence, the figures for `O=C([C@@H]1C[C@@H](O)C2(CCC2)CN1)N1CCC(c2nccc(-c3ccc(F)cc3)n2)CC1` [Example 101] were 0.96 nM and 1.93 nM.
Taken in the same sequence, the figures for `O=C([C@@H]1C[C@@H](O)C2(CCC2)CN1)N1CCC(c2nnn(Cc3ccccc3)n2)CC1` [Example 102] were 9.46 nM and 9.48 nM.
`CC1(C)CN[C@H](C(=O)N2CCC(c3nnn(-c4ccc(F)c(F)c4)n3)CC2)C[C@H]1O` [Example 103]: the values for the IC50 at CTSC in U937 cells and at human recombinant CTSC were 0.5 nM and 2.41 nM, respectively.
Turning to `O=C([C@@H]1C[C@@H](O)C2(CCC2)CN1)N1CCC(n2nnc(-c3ccc(F)cc3F)n2)CC1` [Example 104], the IC50 is 0.61 nM against CTSC in U937 cells and 1.46 nM on human recombinant CTSC.
Taken in the same sequence, the figures for `O=C([C@@H]1C[C@@H](O)C2(CCC2)CN1)N1CCC(n2nnc(-c3ccc(F)cn3)n2)CC1` [Example 105] were 3.97 nM and 2.53 nM.
